Measurements as given in ChEMBL document CHEMBL1122571, “Design and synthesis of tetrahedral intermediate analogues as potential dihydroorotase inhibitors” (J Med Chem, 1984).

Target: Multifunctional protein CAD (Mus musculus, UniProt B2RQC6)
Assay: Compound was evaluated for the inhibition of dihydroorotase enzyme from mouse Ehrlich ascites at the concentration of 10 uM and at pH 7.37
Conditions: read-out: I50

Chain of Multifunctional protein CAD (B2RQC6 whole entry): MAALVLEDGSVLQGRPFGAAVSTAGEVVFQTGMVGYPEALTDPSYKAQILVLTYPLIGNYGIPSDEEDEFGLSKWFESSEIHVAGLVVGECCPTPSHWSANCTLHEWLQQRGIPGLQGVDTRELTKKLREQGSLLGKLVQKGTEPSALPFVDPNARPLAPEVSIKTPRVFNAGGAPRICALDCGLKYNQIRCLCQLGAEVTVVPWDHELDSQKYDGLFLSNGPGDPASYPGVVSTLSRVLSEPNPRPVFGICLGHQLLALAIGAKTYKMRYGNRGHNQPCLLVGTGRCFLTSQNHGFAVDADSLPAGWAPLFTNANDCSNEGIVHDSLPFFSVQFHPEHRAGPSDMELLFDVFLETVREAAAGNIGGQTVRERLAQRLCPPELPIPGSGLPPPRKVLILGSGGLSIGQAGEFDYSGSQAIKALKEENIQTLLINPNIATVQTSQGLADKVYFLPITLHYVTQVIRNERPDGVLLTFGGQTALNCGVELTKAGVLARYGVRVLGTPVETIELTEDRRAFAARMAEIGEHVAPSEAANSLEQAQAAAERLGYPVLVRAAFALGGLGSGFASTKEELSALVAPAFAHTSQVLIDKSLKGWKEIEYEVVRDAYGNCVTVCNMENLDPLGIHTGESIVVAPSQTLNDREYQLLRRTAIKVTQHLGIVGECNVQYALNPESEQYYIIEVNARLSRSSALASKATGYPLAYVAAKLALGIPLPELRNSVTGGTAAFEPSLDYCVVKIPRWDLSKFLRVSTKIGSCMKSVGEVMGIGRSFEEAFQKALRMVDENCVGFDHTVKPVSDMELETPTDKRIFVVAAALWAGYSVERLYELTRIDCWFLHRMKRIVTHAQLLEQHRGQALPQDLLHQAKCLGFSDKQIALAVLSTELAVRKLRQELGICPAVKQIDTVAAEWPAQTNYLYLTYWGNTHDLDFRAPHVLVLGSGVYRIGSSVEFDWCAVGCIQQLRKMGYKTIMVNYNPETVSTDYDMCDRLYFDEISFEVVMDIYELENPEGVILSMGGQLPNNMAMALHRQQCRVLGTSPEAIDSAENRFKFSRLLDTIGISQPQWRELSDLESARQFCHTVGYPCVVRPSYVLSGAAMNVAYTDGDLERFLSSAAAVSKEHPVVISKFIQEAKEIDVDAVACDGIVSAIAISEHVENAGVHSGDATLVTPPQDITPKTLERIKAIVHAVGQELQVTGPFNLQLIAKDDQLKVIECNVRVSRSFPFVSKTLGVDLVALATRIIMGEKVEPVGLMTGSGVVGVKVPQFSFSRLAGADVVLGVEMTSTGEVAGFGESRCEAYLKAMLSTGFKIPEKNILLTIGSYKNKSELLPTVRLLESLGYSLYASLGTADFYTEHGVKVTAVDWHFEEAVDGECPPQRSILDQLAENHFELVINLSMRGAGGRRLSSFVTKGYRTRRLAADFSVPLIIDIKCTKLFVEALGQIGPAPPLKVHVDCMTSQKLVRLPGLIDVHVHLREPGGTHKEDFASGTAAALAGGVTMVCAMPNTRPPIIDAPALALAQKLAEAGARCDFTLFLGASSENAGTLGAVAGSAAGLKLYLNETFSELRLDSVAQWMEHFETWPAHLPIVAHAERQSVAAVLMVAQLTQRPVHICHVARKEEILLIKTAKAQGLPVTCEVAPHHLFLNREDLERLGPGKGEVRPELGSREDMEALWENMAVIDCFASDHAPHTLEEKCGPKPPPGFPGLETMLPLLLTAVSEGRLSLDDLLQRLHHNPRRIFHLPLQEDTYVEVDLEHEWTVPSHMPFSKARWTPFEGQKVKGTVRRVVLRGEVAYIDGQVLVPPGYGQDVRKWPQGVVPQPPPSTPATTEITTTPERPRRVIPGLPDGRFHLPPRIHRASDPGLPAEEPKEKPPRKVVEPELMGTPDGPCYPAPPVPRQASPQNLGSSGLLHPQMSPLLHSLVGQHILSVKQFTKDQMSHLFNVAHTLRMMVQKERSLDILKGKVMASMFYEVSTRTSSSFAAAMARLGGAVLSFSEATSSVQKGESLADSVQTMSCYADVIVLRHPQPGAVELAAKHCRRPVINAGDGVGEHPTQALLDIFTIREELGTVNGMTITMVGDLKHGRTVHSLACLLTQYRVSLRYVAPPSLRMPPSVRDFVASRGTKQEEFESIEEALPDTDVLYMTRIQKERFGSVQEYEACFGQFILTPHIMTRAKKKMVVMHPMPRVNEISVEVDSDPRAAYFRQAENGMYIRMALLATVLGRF

SMILES | IC50
C[S+]1([O-])=NC(=O)NC(C(=O)O)C1 (stereo not given) | > 1000 µM
NC(=O)NC(CP(=O)(O)O)C(=O)O (stereo not given) | > 1000 µM

The remaining lines, values ahead:

IC50 | SMILES
180 µM | O=C1C[S+]([O-])CC(C(=O)O)N1 (stereo not given)
520 µM | O=C1NC(C(=O)O)CS(=O)(=O)N1 (stereo not given)
< 1000 µM | O=C1CSCC(C(=O)O)N1 (stereo not given)
